In the experiment the test system is HCV 1b genotype. In words: HCV replicon assay (HCV-neo replicon cells, wild-type). In kind it is cell-based, Hepatitis C virus. Particulars: HCV 1b genotype replicon. The essentials:
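Inhibition was tested in replicon-bearing cells, both wild-type HCV-neo and lines with NS5A resistance substitutions, using the O'Boyle et al. 2005 replicon method or luciferase-reporter formats.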

Setting [1] is: Hepatitis C virus, class symbol, read-out: EC50 Range against HCV 1b.
Where [2] appears, read: Hepatitis C virus, read-out: EC50 1b.
The mark [3] stands for this setting: Hepatitis C virus, class symbols, read-out: EC50 Range against HCV 1b.
Setting [4] is: class symbols, read-out: EC50 Range against HCV 1b.

Like-named read-outs stand apart in the source and are kept apart here.

For the compound `COc1cccc2c(C(=O)N3CCC[C@H]3C(=O)Nc3ccc(-c4ccc(-c5ccc(NC(=O)[C@@H]6CCCN6C(=O)c6nc(Cl)cc7c(OC)cccc67)cc5)o4)cc3)nc(Cl)cc12` [JG-60, (2S,2′S)-N,N′-(2,5-furandiyldi-4,1-phenylene)bis(1-((3-chloro-5-methoxy-1-isoquinolinyl)carbonyl)-2-pyrrolidinecarboxamide)], under setting [1], the EC50 is 1000 to 10000 nM.

Regarding `O=C(Nc1ccc(-c2ccc(-c3ccc(NC(=O)[C@@H]4CCCN4C(=O)c4nc(Cl)cc5ccccc45)cc3)o2)cc1)[C@@H]1CCCN1C(=O)c1nc(Cl)cc2ccccc12` [JG-61, (2S,2′S)-N,N′-(2,5-furandiyldi-4,1-phenylene)bis(1-((3-chloro-1-isoquinolinyl)carbonyl)-2-pyrrolidinecarboxamide)], the 50% effective concentration (EC50) under setting [1] was 1000 to 10000 nM. On to `O=C(Nc1ccc(-c2ccc(-c3ccc(NC(=O)[C@@H]4CCCN4C(=O)c4nccc5ccccc45)cc3)o2)cc1)[C@@H]1CCCN1C(=O)c1nccc2ccccc12` [JG-62, (2S,2′S)-N,N′-(2,5-furandiyldi-4,1-phenylene)bis(1-(1-isoquinolinylcarbonyl)-2-pyrrolidinecarboxamide)], for which the EC50 under setting [1] was in the range of 100 to 999 nM. On the same count and under the same terms, the result for `CN(C)[C@@H](C(=O)N1CCC[C@H]1C(=O)Nc1ccc(-c2ccc(-c3ccc(NC(=O)[C@@H]4CCCN4C(=O)[C@@H](c4ccccc4)N(C)C)cc3)o2)cc1)c1ccccc1` [JG-63, (2S,2′S)-N,N′-(2,5-furandiyldi-4,1-phenylene)bis(1-((2R)-2-(dimethylamino)-2-phenylacetyl)-2-pyrrolidinecarboxamide)] reads less than 4.57 nM; that for `COc1cccc2c(C(=O)N3CCC[C@H]3C(=O)Nc3ccc(-c4ccc(-c5ccc(NC(=O)[C@@H]6CCCN6C(=O)[C@H](O)c6ccccc6)cc5)o4)cc3)nc(Cl)cc12` [JG-64, (2S)-1-((3-chloro-5-methoxy-1-isoquinolinyl)carbonyl)-N-(4-(5-(4-((((2S)-1-((2R)-2-hydroxy-2-phenylacetyl)-2-pyrrolidinyl)carbonyl)amino)phenyl)-2-furyl)phenyl)-2-pyrrolidinecarboxamide], 4.57 to 99 nM. On to `COc1cccc2c(C(=O)N3CCC[C@H]3C(=O)Nc3ccc(-c4ccc(-c5ccc(NC(=O)[C@@H]6CCCN6C(=O)[C@@H](c6ccccc6)N(C)C)cc5)o4)cc3)nc(Cl)cc12` [JG-65, (2S)-1-((3-chloro-5-methoxy-1-isoquinolinyl)carbonyl)-N-(4-(5-(4-((((2S)-1-((2R)-2-(dimethylamino)-2-phenylacetyl)-2-pyrrolidinyl)carbonyl)amino)phenyl)-2-furyl)phenyl)-2-pyrrolidinecarboxamide], for which the EC50 under setting [1] is less than 4.57 nM. In the case of `CN(C)[C@@H](C(=O)N1CCC[C@H]1C(=O)Nc1ccc(-c2ccc(-c3ccc(NC(=O)[C@@H]4CCCN4C(=O)[C@H](O)c4ccccc4)cc3)o2)cc1)c1ccccc1` [JG-66, (2S)-1-((2R)-2-(dimethylamino)-2-phenylacetyl)-N-(4-(5-(4-((((2S)-1-((2R)-2-hydroxy-2-phenylacetyl)-2-pyrrolidinyl)carbonyl)amino)phenyl)-2-furyl)phenyl)-2-pyrrolidinecarboxamide], under setting [1], the EC50 is less than 4.57 nM. `COc1cccc2c(C(=O)N3CCC[C@H]3C(=O)Nc3ccc(-c4ccc(-c5ccc(NC(=O)[C@@H]6CCCN6C(=O)[C@H](NC(C)=O)c6ccccc6)cc5)o4)cc3)nc(Cl)cc12` [JG-67, (2S)-1-((2R)-2-acetamido-2-phenylacetyl)-N-(4-(5-(4-((((2S)-1-((3-chloro-5-methoxy-1-isoquinolinyl)carbonyl)-2-pyrrolidinyl)carbonyl)amino)phenyl)-2-furyl)phenyl)-2-pyrrolidinecarboxamide]: the half-maximal effective concentration (EC50) reads like this: under setting [1], 4.57 to 99 nM; under setting [2], 5.2 nM. For `COc1cccc2c(C(=O)N3CCC[C@H]3C(=O)Nc3ccc(-c4ccc(-c5ccc(NC(=O)[C@@H]6CCCN6C(=O)[C@@H](O)c6ccccc6)cc5)o4)cc3)nc(Cl)cc12` [JG-68, (2S)-1-((3-chloro-5-methoxy-1-isoquinolinyl)carbonyl)-N-(4-(5-(4-((((2S)-1-((2S)-2-hydroxy-2-phenylacetyl)-2-pyrrolidinyl)carbonyl)amino)phenyl)-2-furyl)phenyl)-2-pyrrolidinecarboxamide], the EC50 under setting [1] was 100 to 999 nM. As to `Cn1cc(C(=O)C(=O)N2CCC[C@H]2C(=O)Nc2ccc(-c3cnc(-c4ccc(NC(=O)[C@@H]5CCCN5C(=O)C(=O)c5cn(C)c6ccccc56)cc4)o3)cc2)c2ccccc21` [JR-1, (2S,2′S)-N,N′-(2,5-oxazolediyldi-4,1-phenylene)bis[1-[2-(1-methyl-1H-indol-3-yl)-1,2-dioxoethyl]-2-pyrrolidinecarboxamide]], the EC50 under setting [3] fell in the range of 100 to 999 nM.

`O=C(Nc1ccc(-c2cnc(-c3ccc(NC(=O)[C@@H]4CCCN4C(=O)C(O)C(F)(F)F)cc3)o2)cc1)[C@@H]1CCCN1C(=O)C(O)C(F)(F)F` (stereo partly drawn) [JR-2, (2S,2′S)-N,N′-(2,5-oxazolediyldi-4,1-phenylene)bis[1-(3,3,3-trifluoro-2-hydroxy-1-oxopropyl)-2-pyrrolidinecarboxamide]]: the EC50 under setting [3] is 100 to 999 nM. Consider `Cn1cncc1C(O)C(=O)N1CCC[C@H]1C(=O)Nc1ccc(-c2cnc(-c3ccc(NC(=O)[C@@H]4CCCN4C(=O)C(O)c4cncn4C)cc3)o2)cc1` (stereo partly drawn) [JR-3, (2S,2′S)-N,N′-(2,5-oxazolediyldi-4,1-phenylene)bis[1-[hydroxy(1-methyl-1H-imidazol-5-yl)acetyl]-2-pyrrolidinecarboxamide]], for which the 50% effective concentration (EC50) under setting [3] lay within 100 to 999 nM. On the same count and under the same terms, next, `O=C(Nc1ccc(-c2cnc(-c3ccc(NC(=O)[C@@H]4CCCN4C(=O)C(O)Cc4cccnc4)cc3)o2)cc1)[C@@H]1CCCN1C(=O)C(O)Cc1cccnc1` (stereo partly drawn) [JR-4, (2S,2′S)-N,N′-(2,5-oxazolediyldi-4,1-phenylene)bis[1-[2-hydroxy-1-oxo-3-(3-pyridinyl)propyl]-2-pyrrolidinecarboxamide]]: 1000 to 10000 nM.

`O=C(Nc1ccc(-c2cnc(-c3ccc(NC(=O)[C@@H]4CCCN4C(=O)C(O)Cc4c[nH]c5ccccc45)cc3)o2)cc1)[C@@H]1CCCN1C(=O)C(O)Cc1c[nH]c2ccccc12` (stereo partly drawn) [JR-5, (2S,2′S)-N,N′-(2,5-oxazolediyldi-4,1-phenylene)bis[1-[2-hydroxy-3-(1H-indol-3-yl)-1-oxopropyl]-2-pyrrolidinecarboxamide]]: the EC50 under setting [3] was in the range of 100 to 999 nM. Take `O=C(Nc1ccc(-c2cnc(-c3ccc(NC(=O)[C@@H]4CCCN4C(=O)C(O)c4cccs4)cc3)o2)cc1)[C@@H]1CCCN1C(=O)C(O)c1cccs1` (stereo partly drawn) [JR-6, (2S,2′S)-N,N′-(2,5-oxazolediyldi-4,1-phenylene)bis[1-(hydroxy-2-thienylacetyl)-2-pyrrolidinecarboxamide]]: the EC50 runs as follows: under setting [3], less than 4.57 nM; under setting [2], less than 5 nM. In the case of `O=C(Nc1ccc(-c2cnc(-c3ccc(NC(=O)[C@@H]4CCCN4C(=O)C(O)c4cccnc4)cc3)o2)cc1)[C@@H]1CCCN1C(=O)C(O)c1cccnc1` (stereo partly drawn) [JR-7, (2S,2′S)-N,N′-(2,5-oxazolediyldi-4,1-phenylene)bis[1-(hydroxy-3-pyridinylacetyl)-2-pyrrolidinecarboxamide]], the concentration giving a half-maximal response (EC50) under setting [3] is 4.57 to 99 nM.

For the compound `CN(C)C(Cc1ccc(Br)cc1)C(=O)N1CCC[C@H]1C(=O)Nc1ccc(-c2cnc(-c3ccc(NC(=O)[C@@H]4CCCN4C(=O)C(Cc4ccc(Br)cc4)N(C)C)cc3)o2)cc1` (stereo partly drawn) [JR-8, (2S)-N,N′-(4,4′-(oxazole-2,5-diyl)bis(4,1-phenylene))bis(1-(3-(4-bromophenyl)-2-(dimethylamino)propanoyl)pyrrolidine-2-carboxamide)], the EC50 under setting [4] lay within 4.57 to 99 nM.

In the case of `O=C(Nc1ccc(-c2cnc(-c3ccc(NC(=O)[C@@H]4CCCN4C(=O)Cn4c(=O)[nH]c5ccccc54)cc3)o2)cc1)[C@@H]1CCCN1C(=O)Cn1c(=O)[nH]c2ccccc21` [JR-9, (2S,2′S)-N,N′-(2,5-oxazolediyldi-4,1-phenylene)bis[1-[(2,3-dihydro-2-oxo-1H-benzimidazol-1-yl)acetyl]-2-pyrrolidinecarboxamide]], under setting [3], the EC50 lay in the range of 100 to 999 nM. In the case of `CCn1c(=O)n(C(C)C(=O)N2CCC[C@H]2C(=O)Nc2ccc(-c3cnc(-c4ccc(NC(=O)[C@@H]5CCCN5C(=O)C(C)n5c(=O)n(CC)c6ccccc65)cc4)o3)cc2)c2ccccc21` (stereo partly drawn) [JR-10, (2S,2′S)-N,N′-(2,5-oxazolediyldi-4,1-phenylene)bis[1-[2-(3-ethyl-2,3-dihydro-2-oxo-1H-benzimidazol-1-yl)-1-oxopropyl]-2-pyrrolidinecarboxamide]], the EC50 under setting [3] was 1000 to 10000 nM. Consider `O=C(Nc1ccc(-c2cnc(-c3ccc(NC(=O)[C@@H]4CCCN4C(=O)C(c4ccccc4)n4c(=O)[nH]c5ccccc54)cc3)o2)cc1)[C@@H]1CCCN1C(=O)C(c1ccccc1)n1c(=O)[nH]c2ccccc21` (stereo partly drawn) [JR-11, (2S,2′S)-N,N′-(2,5-oxazolediyldi-4,1-phenylene)bis[1-[(2,3-dihydro-2-oxo-1H-benzimidazol-1-yl)phenylacetyl]-2-pyrrolidinecarboxamide]], for which the EC50 under setting [3] fell in the range of 100 to 999 nM.

As to `CN(C)C(Cn1cncn1)C(=O)N1CCC[C@H]1C(=O)Nc1ccc(-c2cnc(-c3ccc(NC(=O)[C@@H]4CCCN4C(=O)C(Cn4cncn4)N(C)C)cc3)o2)cc1` (stereo partly drawn) [JR-12, (2S)-N,N′-(4,4′-(oxazole-2,5-diyl)bis(4,1-phenylene))bis(1-(2-(dimethylamino)-3-(1H-1,2,4-triazol-1-yl)propanoyl)pyrrolidine-2-carboxamide)], the EC50 under setting [4] is 100 to 999 nM. Turning to `CN(C)[C@H](C(=O)N1CCC[C@H]1C(=O)Nc1ccc(-c2cnc(-c3ccc(NC(=O)[C@@H]4CCCN4C(=O)[C@H]([C@@H](O)c4ccccc4)N(C)C)cc3)o2)cc1)[C@@H](O)c1ccccc1` [JR-13, (S,S,2S)-N,N′-(4,4′-(oxazole-2,5-diyl)bis(4,1-phenylene))bis(1-((2S,3S)-2-(dimethylamino)-3-hydroxy-3-phenylpropanoyl)pyrrolidine-2-carboxamide)], the EC50 runs as follows: under setting [4], 100 to 999 nM; (read-out: EC50 1b) 112 nM.

The values are drawn from patent US8735398B2 (Bristol-Myers Squibb Company, priority 2009, dated 2014).
